Experiment [1] relates to methicillin-resistant Staphylococcus aureus. Briefly: MIC by broth microdilution, Taiwan clinical isolates (Compound 1′). Particulars: for MIC50 / MIC90: Staphylococcus aureus, MRSA. The class given is cell-based. Here is the method:
(§1) The Staphylococcus aureus and Streptococcus pneumoniae isolates were obtained by 10 medical centers in all regions of Taiwan. MICs were determined using the broth microdilution method.
(Broth dilution looks for growth in wells or tubes with falling amounts of substance.)

The subject of experiment [2] is methicillin-resistant Streptococcus pneumoniae. The description is as above. The settings on record: for MIC50 / MIC90: Streptococcus pneumoniae. The class given is cell-based. Here is the method:
as §1

The subject of experiment [3] is Methicillin-resistant Staphylococcus aureus (MRSA) isolates. The experiment can be described thus: MIC by broth microdilution (CLSI) against CAN-ICU MRSA isolates. The class given is cell-based. Particulars: Staphylococcus aureus; for MIC50: read-out: MIC50; for MIC90: read-out: MIC90. The text has this: MRSA isolates (n=193) were obtained as part of the Canadian National Intensive Care Unit (CAN-ICU) Study. 19 medical centers from all regions of Canada with active ICUs participated in the CAN-ICU study included. They were requested to only obtain “clinically significant” specimens from patients with a presumed infectious disease. Surveillance swabs, eye, ear, nose and throat swabs were excluded. Anaerobic organisms and fungal organisms were also excluded.
From September 2005-June 2006 (inclusive), each center collected a maximum of 300 consecutive pathogens isolated from blood, urine, tissue/wound, and respiratory specimens (one pathogen per cultured site per patient) of ICU patients. These isolates were shipped to the reference laboratory (Health Sciences Centre, Winnipeg, Canada) on Amies charcoal swabs, subcultured in appropriate media, and stocked in skim milk at −80° C.
All isolates underwent mecA PCR, as well as molecular characterization (including PVL analysis and fingerprinting), as previously described, to assess whether they were community-associated or healthcare-associated (Christianson et al., J Clin Microbiol. 2007, 45 (6): 1904-11; Mulvey et al., J Clin. Microbiol. 2001, 39(10): 3481-5; Mulvey et al., Emerg Infect Dis. 2005,11(6): 844-50; Oliveira et al., Antimicrob Agents Chemother. 2002, 46(7): 2155-61). The isolates were also subtyped using pulsed-field gel electrophoresis (PFGE) following the Canadian standardized protocol as previously described (Mulvey et al., J Clin Microbiol. 2001, 39(10): 3481-5). Their PFGE fingerprints thus obtained were analyzed with BioNumerics v3.5 (Applied Maths St. Marten-Latem, Belgium) using a position tolerance of 1.0 and an optimization of 1.0. Strain relatedness was determined as previously described (Tenover et al., 1995). The fingerprints of the isolates were compared to the national MRSA fingerprint database and were grouped into one of 10 Canadian epidemic MRSA (CMRSA-1, CMRSA-2, etc) as previously described (Mulvey et al., Emerg Infect Dis. 2005,11(6):844-50).
Compound 1 and other antibiotics were tested for their inhibitory activity against the MRSA isolates using the broth microdilution guidelines as stipulated by the Clinical and Laboratory Standards Institute.

For experiment [4], the system named is Staphylococcus aureus strains (MRSA, hVISA, VISA, VRSA, quinolone-resistant MRSA). Briefly: MIC by agar dilution against Staphylococcal strains (MRSA, hVISA, VISA, VRSA, quinolone-resistant MRSA). The class given is cell-based. Particulars: Staphylococcus aureus. Here is the method: Compound 1 was tested for its inhibitory effect against 26 Methicillin-resistant Staphylococcus aureus (MRSA) strains, 2 hetero-Vancomycin intermediate Staphylococcus aureus (hVISA) strains, 24 Vancomycin-intermediate Staphylococcus aureus (VISA) strains, 5 Vancomycin-resistant Staphylococcus aureus (VRSA) strains, and 31 quinolone-resistant Vancomycin-susceptibale MRSA strains with defined mutations in QRDR. These mutations were determined by sequencing analysis of the QRDR (gyrA, gyrB, grlA, and grlB). Efflux testing was performed by the reserpine method (Brenwald, et al., Antimicrob. Agents Chemother. 1998, 42: 2032-2035).
(In general: In agar dilution the substance is mixed into plates at graded concentrations.)

The subject of the next experiment is S. pneumoniae. Briefly: CANWARD 2007 gram-positive cocci, CLSI broth microdilution. More on the design: MIC50 / MIC90: unit not given here. The class given is cell-based, Streptococcus pneumoniae. Here is the method:
(§2) From January-December 2007, 12 hospitals across Canada submitted isolates from patients attending hospital clinics, emergency rooms, medical and surgical wards, and intensive care units. 7881 isolates (CANWARD 2007) were collected including 3473 gram-positive cocci. Susceptibility testing for Compound 1 and Levofloxacin was performed using the Clinical and Laboratory Standards Institute broth microdilution.

Experiment [5] has as its system S. aureus (MSSA, CA-MRSA, HA-MRSA, VISA, VRSA). The experiment can be described thus: CANWARD 2007 / NARSA gram-positive cocci, CLSI broth microdilution. The class given is cell-based, Staphylococcus aureus. More on the design: MIC50 / MIC90: unit not given here. Here is the method:
as §2

For experiment [6], the system named is Staphylococcus epidermidis (MSSE, MRSE). Briefly: CANWARD 2007 gram-positive cocci, CLSI broth microdilution. More on the design: MIC50 / MIC90: unit not given beside the values. The class given is cell-based. Here is the method:
as §2

The test system of a further experiment is E. faecalis. The description is as above. The class given is cell-based. More on the design: unit not given beside the values. Particulars: E. faecalis (81). Here is the method:
as §2

The test system of another experiment is H. pylori isolates. The experiment can be described thus: MIC by agar dilution against 200 H. pylori isolates (Taiwan). The class given is cell-based, Helicobacter pylori. The settings on record: for share of isolates resistant: 200 H. pylori isolates, resistance: amoxicillin MICs≧0.5, clarithromycin ≧1, metronidazole ≧8, ciprofloxacin ≧1, levofloxacin ≧1 μg/mL; for MIC50 / MIC90: Helicobacter pylori, 200 isolates of H. pylori. Here is the method:
MICs were determined using the agar dilution methods recommended by the Clinical and Laboratory Standards Institute (CLSI-M100-S18).

Where [7] appears, read: MRSA-CIP (R): MRSA-ciprofloxacin resistant strain.
The mark [8] stands for this setting: MRSA-CIP (S): MRSA-ciprofloxacin sensitive strain.
Setting [9] is: MRSP-Levo (R): Levofloxacin resistant strain.
Setting [10] is: MRSP-Levo (S): Levofloxacin sensitive strain.
Where [11] appears, read: MRSA / USA100, USA 100/800 (HA-MRSA).
Setting [12] is: MRSA / USA200, USA 200 (HA-MRSA).
Where [13] appears, read: MRSA / USA300, USA 300 (CA-MRSA).
The mark [14] stands for this setting: MRSA / USA400, USA 400 (CA-MRSA).
[15] abbreviates: MRSA / USA600, USA 600 (HA-MRSA).
[16] abbreviates: MRSA (n = 193), read-out: MIC Range Max.
The mark [17] stands for this setting: MRSA (n = 193), read-out: MIC Range Min.
The mark [18] stands for this setting: hVISA(2) + VISA (24) + VRSA (5).

Converted amounts (≈) assume the structure as drawn. Where two headings read alike, the source gives them in different places.

A word on the MIC: it is the lowest concentration that inhibits growth of the organism.

`COc1c(N2C[C@H](C)C[C@H](N)C2)ccc2c(=O)c(C(=O)O)cn(C3CC3)c12` [Compound 1′, (3S,5R)-7-[3-amino-5-methyl-piperidinyl]-1-cyclopropyl-1,4-dihydro-8-methoxy-4-oxo-3-quinolinecarboxylic acid]: the MIC50 in experiment [1] (setting [7]) is 1 µg/mL (≈ 2.69 µM); in [1] (setting [8]), 0.03 µg/mL (≈ 0.0808 µM); in [2] (setting [9]), 0.25 µg/mL (≈ 0.673 µM); in [2] (setting [10]), 0.03 µg/mL (≈ 0.0808 µM). Besides, the MIC90 in experiment [1] (setting [7]) was determined as 1 µg/mL (≈ 2.69 µM); in [1] (setting [8]), 0.06 µg/mL (≈ 0.162 µM); in experiment [2] (setting [9]), 1 µg/mL (≈ 2.69 µM); in [2] (setting [10]) it was 0.06 µg/mL (≈ 0.162 µM). In addition, the “inhibition (in words)” value in experiment [1] (methicillin-resistant Staphylococcus aureus) and in experiment [2] (methicillin-resistant Streptococcus pneumoniae) was “effective” throughout.

For the compound `C[C@H]1COc2c(N3CCN(C)CC3)c(F)cc3c(=O)c(C(=O)O)cn1c23` [Levofloxacin], the MIC50 in [3] (setting [11]) is greater than 32 µg/mL; in [3] (setting [12]) it was 32 µg/mL (≈ 88.6 µM); in [3] (setting [13]) it was 8 µg/mL (≈ 22.1 µM); in experiment [3] (setting [14]), 0.25 µg/mL (≈ 0.692 µM); in experiment [3] (setting [15]) it was 32 µg/mL (≈ 88.6 µM); in experiment [3] (MRSA (n = 193)) it was greater than 32 µg/mL. The MIC50 in experiment [4] (MRSA (26)) came out at 0.25 µg/mL (≈ 0.692 µM); in experiment [4] (Quinolone-resistant MRSA (31)), 16 µg/mL (≈ 44.3 µM); in [4] (setting [18]) it was 16 µg/mL; in the experiment on S. pneumoniae (SPN CipR (29)) it was 2; against S. pneumoniae (SPN PenI (103)), 0.5; against S. pneumoniae (SPN PenR (34)), 0.5. Moreover, the MIC50 in the experiment with S. pneumoniae (SPN PenS (519)) is 0.5; against S. pneumoniae (SPN-All (656)), 0.5; in experiment [5] (CA-MRSA (23)), 4; in experiment [5] (HA-MRSA (91)) it was >32/>32; in experiment [5] (MSSA (372)), 0.25; in [5] (VISA (12), NARSA isolates), 32/>32. Also, the MIC50 was >32/>32 in experiment [6] (MRSE (9)), 4 in experiment [6] (MSSE (32)), 2 with E. faecalis and 250 µg/mL (≈ 692 µM) against H. pylori isolates. For the same compound, the MIC90 in experiment [3] (setting [11]) was greater than 32 µg/mL; in [3] (setting [12]) it was greater than 32 µg/mL; in experiment [3] (setting [13]), 8 µg/mL (≈ 22.1 µM); in experiment [3] (setting [14]), 0.25 µg/mL (≈ 0.692 µM); in experiment [3] (setting [15]) it was greater than 32 µg/mL; in experiment [3] (MRSA (n = 193)), greater than 32 µg/mL. In addition, the MIC90 is 0.5 µg/mL (≈ 1.38 µM) in experiment [4] (MRSA (26)); 32 µg/mL (≈ 88.6 µM) in experiment [4] (Quinolone-resistant MRSA (31)); 32 µg/mL in [4] (setting [18]); 16 against S. pneumoniae (SPN CipR (29)); 1 in the experiment with S. pneumoniae (SPN PenI (103)); 2 against S. pneumoniae (SPN PenR (34)). The MIC90 against S. pneumoniae (SPN PenS (519)) is given as 1; in the experiment with S. pneumoniae (SPN-All (656)), 1; in [5] (CA-MRSA (23)), 8; in [5] (HA-MRSA (91)), >32/>32; in [5] (MSSA (372)), 4; in experiment [5] (VISA (12), NARSA isolates), 32/>32. For the same compound, the MIC90 is >32/>32 in [6] (MRSE (9)), greater than 32 in experiment [6] (MSSE (32)), greater than 32 in the experiment on E. faecalis and 500 µg/mL (≈ 1380 µM) against H. pylori isolates. For the same compound, the minimal inhibitory concentration (MIC) in experiment [3] (setting [16]) is greater than 32 µg/mL; in experiment [3] (setting [17]), 0.25 µg/mL (≈ 0.692 µM); in experiment [4] (read-out: MIC Range, MRSA (26)), 0.25 to 1 µg/mL (≈ 0.692 to 2.77 µM). In addition, the “median MIC (single value under head MIC50/MIC90)” value in experiment [5] (VRSA (7), NARSA isolates) was 32. Further, the “share of isolates resistant” value with H. pylori isolates is listed as 2%. Further, the “MIC50/MIC90 (single value printed)” value in experiment [2] (MRSP-Levo (R)) is greater than 128 µg/mL; in experiment [2] (MRSP-Levo (S)) it was 16 µg/mL (≈ 44.3 µM).

In the case of `CC[C@H]1OC(=O)[C@H](C)[C@@H](O[C@H]2C[C@@](C)(OC)[C@@H](O)[C@H](C)O2)[C@H](C)[C@@H](O[C@@H]2O[C@H](C)C[C@H](N(C)C)[C@H]2O)[C@](C)(OC)C[C@@H](C)C(=O)[C@H](C)[C@@H](O)[C@]1(C)O` [Clarithromycin], in experiment [3] (MRSA (n = 193)), the MIC50 is greater than 32 µg/mL and the MIC90 is greater than 32 µg/mL. Further, the MIC in experiment [3] (setting [16]) was greater than 32 µg/mL. The minimal inhibitory concentration (MIC) in experiment [3] (setting [17]) stood at 0.25 µg/mL (≈ 0.334 µM). The “share of isolates resistant” value with H. pylori isolates is reported as 6%.

Regarding `COc1c(N2C[C@@H]3CCCN[C@@H]3C2)c(F)cc2c(=O)c(C(=O)O)cn(C3CC3)c12` [Moxifloxacin], the MIC50 amounted to 0.06 µg/mL (≈ 0.149 µM) in experiment [4] (MRSA (26)), 4 µg/mL (≈ 9.96 µM) in experiment [4] (Quinolone-resistant MRSA (31)), 4 µg/mL in experiment [4] (setting [18]) and 250 µg/mL (≈ 623 µM) against H. pylori isolates. The MIC90 in [4] (MRSA (26)) is 0.06 µg/mL (≈ 0.149 µM); in experiment [4] (Quinolone-resistant MRSA (31)) it was 8 µg/mL (≈ 19.9 µM); in experiment [4] (setting [18]) it was 8 µg/mL; in the experiment on H. pylori isolates, 500 µg/mL (≈ 1250 µM). The minimum inhibitory concentration (MIC) in [4] (read-out: MIC Range, MRSA (26)) was in the range of 0.03 to 0.25 µg/mL (≈ 0.0747 to 0.623 µM); in [4] (read-out: MIC Range, Quinolone-resistant MRSA (31)), 1 to 8 µg/mL (≈ 2.49 to 19.9 µM); in experiment [4] (read-out: MIC Range, hVISA(2) + VISA (24) + VRSA (5)), 0.06 to 8 µg/mL.
